pIC50: −log10 of the molar value.
Legend:
[1] = tested on: P. aeruginosa Ps296 expressing VIM-2; assay: Broth microdilution MIC, P. aeruginosa Ps296 VIM-2; format: cell-based; conditions: fixed 4 μg/mL meropenem; CAMHB, 16-20 hours at 37° C.
How it was run: (§1)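 Strains were grown 3-5 h in cation-adjusted Mueller Hinton broth, then inoculated per CLSI into plates holding compound dilutions (32 to 0.25 μg/ml, 2-fold) plus a β-lactam fixed at 4 μg/ml. Plates were incubated 16-20 h at 37° C before visual MIC reading.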

[2] = tested on: E. coli ESBL4 expressing CTX-M-15; assay: Broth microdilution MIC, E. coli ESBL4 CTX-M-15; format: cell-based; conditions: fixed 4 μg/mL ceftazidime; CAMHB, 16-20 hours at 37° C.
How it was run: as §1

[3] = target: T1, KPC-2 β-lactamase (Class A carbapenemase) (Klebsiella pneumoniae, UniProt Q9F663); assay: β-Lactamase inhibition, KPC-2; format: biochemical; conditions: imipenem substrate, 300 nm; 15 min preincubation at 37° C., PBS pH 7.4
T1 construct: made in house; host or cells: E. coli BL21(DE3)
T1 sequence (Q9F663 25-293, looked up): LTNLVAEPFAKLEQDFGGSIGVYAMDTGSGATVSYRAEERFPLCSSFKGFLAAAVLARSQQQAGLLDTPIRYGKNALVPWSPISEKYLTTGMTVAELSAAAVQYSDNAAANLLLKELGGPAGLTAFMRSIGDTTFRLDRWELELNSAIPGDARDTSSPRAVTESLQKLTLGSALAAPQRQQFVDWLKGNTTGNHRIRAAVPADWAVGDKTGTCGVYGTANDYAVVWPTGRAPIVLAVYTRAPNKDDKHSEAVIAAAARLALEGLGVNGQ
How it was run: (§2)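 Untagged enzyme from E. coli BL21(DE3), purified by Capto S then Superdex 75; 15 min 37 °C preincubation with inhibitor; KPC-2 read with imipenem at 300 nm, SHV-5 with cefotaxime at 260 nm, OXA-1 with nitrocefin 100 μM final at 486 nm; 10 min kinetic read; IC50 vs uninhibited wells.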

[4] = tested on: E. cloacae 144200 expressing Class C P99 AmpC; assay: Broth microdilution MIC, E. cloacae 144200 p99 AmpC; format: cell-based; conditions: fixed 4 μg/mL ceftazidime; CAMHB, 16-20 hours at 37° C.
How it was run: as §1

[5] = target: T2, SHV-5 β-lactamase (Class A ESBL) (Klebsiella pneumoniae, UniProt P0A3M1); assay: β-Lactamase inhibition, SHV-5; format: biochemical
T2 construct: made in house; host or cells: E. coli BL21(DE3)
T2 sequence (P0A3M1 22-286): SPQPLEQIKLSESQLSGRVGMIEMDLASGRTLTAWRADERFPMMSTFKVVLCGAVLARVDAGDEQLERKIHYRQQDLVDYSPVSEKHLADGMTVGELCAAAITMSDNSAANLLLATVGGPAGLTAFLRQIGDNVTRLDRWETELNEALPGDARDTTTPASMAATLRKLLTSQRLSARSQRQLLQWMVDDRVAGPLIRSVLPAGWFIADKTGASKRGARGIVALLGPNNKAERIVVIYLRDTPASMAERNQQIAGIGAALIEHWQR
How it was run: as §2

[6] = target: T3, p99 AmpC β-lactamase (Class C) (Enterobacter cloacae, UniProt P05364); assay: β-Lactamase inhibition, p99 AmpC; format: biochemical
T3 construct: made in house; host or cells: E. coli BL21(DE3)
T3 sequence (P05364 21-381): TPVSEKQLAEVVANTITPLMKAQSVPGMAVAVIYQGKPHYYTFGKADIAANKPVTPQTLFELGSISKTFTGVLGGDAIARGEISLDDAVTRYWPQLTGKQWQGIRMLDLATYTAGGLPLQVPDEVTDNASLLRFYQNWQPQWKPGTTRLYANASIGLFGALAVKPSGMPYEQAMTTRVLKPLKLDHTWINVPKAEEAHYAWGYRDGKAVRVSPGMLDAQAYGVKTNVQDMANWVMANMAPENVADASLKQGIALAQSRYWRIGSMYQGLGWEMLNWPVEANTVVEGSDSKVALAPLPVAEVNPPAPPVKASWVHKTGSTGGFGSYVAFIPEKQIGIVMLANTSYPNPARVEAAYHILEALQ

[7] = tested on: K. pneumoniae 156319 expressing KPC-3; assay: Broth microdilution MIC, K. pneumoniae 156319 KPC-3; format: cell-based; conditions: fixed 4 μg/mL meropenem; CAMHB, 16-20 hours at 37° C.
How it was run: as §1

[8] = target: T4, VIM-2 metallo-β-lactamase (Class B) (Pseudomonas aeruginosa, UniProt Q9K2N0); assay: β-Lactamase inhibition, VIM-2; format: biochemical; conditions: nitrocefin 100 μM, 486 nm; 15 min preincubation at 37° C., PBS pH 7.4
T4 construct: made in house; host or cells: E. coli BL21(DE3)
How it was run: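 First, VIM-2 purified by repeated anion exchange at pH 7.5 is mixed with inhibitor and held 15 min at 37 °C. Next, nitrocefin (final 100 μM) is dispensed and absorbance at 486 nm monitored immediately for 10 min. Rates versus uninhibited controls give IC50.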

[9] = tested on: S. aureus MSSA-7 producing penicillinase PC-1; assay: Broth microdilution MIC, S. aureus MSSA-7 PC-1; format: cell-based; conditions: fixed 4 μg/mL piperacillin; CAMHB, 16-20 hours at 37° C.
How it was run: as §1

[10] = target: T5, OXA-1 β-lactamase (Class D oxacillinase) (Escherichia coli, UniProt P13661); assay: β-Lactamase inhibition, OXA-1; format: biochemical; conditions: nitrocefin 100 μM, 486 nm; 15 min preincubation at 37° C., PBS pH 7.4
T5 construct: made in house; host or cells: E. coli BL21(DE3)
T5 sequence (P13661 26-276): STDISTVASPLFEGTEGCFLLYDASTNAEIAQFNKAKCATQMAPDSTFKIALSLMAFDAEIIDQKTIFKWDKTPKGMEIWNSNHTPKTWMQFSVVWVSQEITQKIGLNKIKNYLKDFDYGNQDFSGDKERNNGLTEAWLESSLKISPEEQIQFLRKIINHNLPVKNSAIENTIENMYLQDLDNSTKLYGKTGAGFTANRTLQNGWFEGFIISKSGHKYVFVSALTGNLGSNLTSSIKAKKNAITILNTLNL
How it was run: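 Compounds are mixed with purified, untagged recombinant β-lactamase and held 15 min at 37 °C. Substrate is then added: nitrocefin (100 μM final) for OXA-1, imipenem for KPC-2, cefotaxime for SHV-5. Absorbance is followed immediately, and percent inhibition per concentration gives the IC50.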

[11] = tested on: K. pneumoniae A-1797 expressing KPC-2 and VIM-4; assay: Broth microdilution MIC, K. pneumoniae A-1797 KPC-2/VIM-4; format: cell-based; conditions: fixed 4 μg/mL meropenem; CAMHB, 16-20 hours at 37° C.
How it was run: as §1

Structure (SMILES) | MIC of example compound in presence of fixed β-lactam: Fixed Mero, P. aerug. Ps296 VIM-2 [1] | MIC of example compound in presence of fixed β-lactam: Fixed CAZ, E. coli ESBL4 CTX-M-15 [2] | pIC50 [3] | MIC of example compound in presence of fixed β-lactam: Fixed CAZ, E. cl. 144200 p99 AmpC [4] | pIC50 [5] | pIC50 [6] | MIC of example compound in presence of fixed β-lactam: Fixed Mero, K. P. 156319 KPC-3 [7] | pIC50 [8] | MIC of example compound in presence of fixed β-lactam: Fixed Pip, S. aureus MSSA-7 PC-1 [9] | pIC50 [10] | MIC of example compound in presence of fixed β-lactam: Fixed Mero, K. P. A-1797 KPC-2 VIM-4 [11]
O=C(O)c1cccc2c1OB(O)[C@@H](NC(=O)C1CN(c3ncccn3)C1)C2 [Example 48, (R)-2-hydroxy-3-(1-(pyrimidin-2-yl)azetidine-3-carboxamido)-3,4-dihydro-2H-benzo[e][1,2]oxaborinine-8-carboxylic acid] | C (the MIC in the presence of <4 μg/mL of a β-lactamase inhibitor) | C (the MIC in the presence of <4 μg/mL of a β-lactamase inhibitor) | > 7.00 | C (the MIC in the presence of <4 μg/mL of a β-lactamase inhibitor) | > 7.00 | > 7.00 | C (the MIC in the presence of <4 μg/mL of a β-lactamase inhibitor) | 5.00 to 6.00 | C (the MIC in the presence of <4 μg/mL of a β-lactamase inhibitor) | > 7.00 | B (the MIC in the presence of between 8 and 32 μg/mL of a β-lactamase inhibitor)
NCC1CCCN(CC(=O)N[C@H]2Cc3cccc(C(=O)O)c3OB2O)C1 (some centres unmarked) [Example 19, 3-[2-(3-Aminomethyl-piperidin-1-yl)-acetylamino]-2-hydroxy-3,4-dihydro-2H-benzo[e][1,2]oxaborinine-8-carboxylic acid] | A (an MIC of the fixed β-lactam antibiotic in the presence of >32 μg/mL of a β-lactamase inhibitor) | C (the MIC in the presence of <4 μg/mL of a β-lactamase inhibitor) | 6.00 to 7.00 | C (the MIC in the presence of <4 μg/mL of a β-lactamase inhibitor) | > 7.00 | > 7.00 | B (the MIC in the presence of between 8 and 32 μg/mL of a β-lactamase inhibitor) | 4.00 to 5.00 | B (the MIC in the presence of between 8 and 32 μg/mL of a β-lactamase inhibitor) | > 7.00 | A (an MIC of the fixed β-lactam antibiotic in the presence of >32 μg/mL of a β-lactamase inhibitor)
CN1CCC(CC(=O)N[C@H]2Cc3cccc(C(=O)O)c3OB2O)CC1 [Example 45, 2-Hydroxy-3-[2-(1-methyl-piperidin-4-yl)-acetylamino]-3,4-dihydro-2H-benzo[e][1,2]oxaborinine-8-carboxylic acid] | C (the MIC in the presence of <4 μg/mL of a β-lactamase inhibitor) | C (the MIC in the presence of <4 μg/mL of a β-lactamase inhibitor) | > 7.00 | C (the MIC in the presence of <4 μg/mL of a β-lactamase inhibitor) | > 7.00 | > 7.00 | C (the MIC in the presence of <4 μg/mL of a β-lactamase inhibitor) | 6.00 to 7.00 | B (the MIC in the presence of between 8 and 32 μg/mL of a β-lactamase inhibitor) | 6.00 to 7.00 | C (the MIC in the presence of <4 μg/mL of a β-lactamase inhibitor)
NCCC(=O)NC1CCN(CC(=O)N[C@H]2Cc3cccc(C(=O)O)c3OB2O)CC1 [Example 27, 3-{2-[4-(3-Amino-propionylamino)-piperidin-1-yl]-acetylamino}-2-hydroxy-3,4-dihydro-2H-benzo[e][1,2]oxaborinine-8-carboxylic acid] | B (the MIC in the presence of between 8 and 32 μg/mL of a β-lactamase inhibitor) | C (the MIC in the presence of <4 μg/mL of a β-lactamase inhibitor) | 6.00 to 7.00 | B (the MIC in the presence of between 8 and 32 μg/mL of a β-lactamase inhibitor) | 6.00 to 7.00 | > 7.00 | B (the MIC in the presence of between 8 and 32 μg/mL of a β-lactamase inhibitor) | 4.00 to 5.00 | A (an MIC of the fixed β-lactam antibiotic in the presence of >32 μg/mL of a β-lactamase inhibitor) | 6.00 to 7.00 | B (the MIC in the presence of between 8 and 32 μg/mL of a β-lactamase inhibitor)
NCCN1CCN(CC(=O)N[C@H]2Cc3cccc(C(=O)O)c3OB2O)C(=O)C1 [Example 36, 3-{2-[4-(2-Amino-ethyl)-2-oxo-piperazin-1-yl]-acetylamino}-2-hydroxy-3,4-dihydro-2H-benzo[e][1,2]oxaborinine-8-carboxylic acid] | B (the MIC in the presence of between 8 and 32 μg/mL of a β-lactamase inhibitor) | C (the MIC in the presence of <4 μg/mL of a β-lactamase inhibitor) | 6.00 to 7.00 | C (the MIC in the presence of <4 μg/mL of a β-lactamase inhibitor) | > 7.00 | > 7.00 | B (the MIC in the presence of between 8 and 32 μg/mL of a β-lactamase inhibitor) | 5.00 to 6.00 | C (the MIC in the presence of <4 μg/mL of a β-lactamase inhibitor) | > 7.00 | B (the MIC in the presence of between 8 and 32 μg/mL of a β-lactamase inhibitor)
O=C(CN1CCC(O)CC1)N[C@H]1Cc2cccc(C(=O)O)c2OB1O [Example 12, 2-Hydroxy-3-[2-(4-hydroxy-piperidin-1-yl)-acetylamino]-3,4-dihydro-2H-benzo[e][1,2]oxaborinine-8-carboxylic acid] | B (the MIC in the presence of between 8 and 32 μg/mL of a β-lactamase inhibitor) | C (the MIC in the presence of <4 μg/mL of a β-lactamase inhibitor) | > 7.00 | C (the MIC in the presence of <4 μg/mL of a β-lactamase inhibitor) | > 7.00 | > 7.00 | C (the MIC in the presence of <4 μg/mL of a β-lactamase inhibitor) | 6.00 to 7.00 | C (the MIC in the presence of <4 μg/mL of a β-lactamase inhibitor) | > 7.00 | B (the MIC in the presence of between 8 and 32 μg/mL of a β-lactamase inhibitor)
N[C@H]1CCN(CC(=O)N[C@H]2Cc3cccc(C(=O)O)c3OB2O)C1 [Example 7, 3-[2-(S-3-Amino-pyrrolidin-1-yl)-acetylamino]-2-hydroxy-3,4-dihydro-2H-benzo[e][1,2]oxaborinine-8-carboxylic acid] | A (an MIC of the fixed β-lactam antibiotic in the presence of >32 μg/mL of a β-lactamase inhibitor) | C (the MIC in the presence of <4 μg/mL of a β-lactamase inhibitor) | 6.00 to 7.00 | C (the MIC in the presence of <4 μg/mL of a β-lactamase inhibitor) | > 7.00 | > 7.00 | C (the MIC in the presence of <4 μg/mL of a β-lactamase inhibitor) | 5.00 to 6.00 | C (the MIC in the presence of <4 μg/mL of a β-lactamase inhibitor) | 6.00 to 7.00 | A (an MIC of the fixed β-lactam antibiotic in the presence of >32 μg/mL of a β-lactamase inhibitor)

Source: US10294248B2, “Beta-lactamase inhibitors” (VenatoRx Pharmaceuticals, Inc., priority 2013, dated 2019)
